Experimental data taken from patent publication US20260014134A1, “COMPOSITION FOR TOPICAL DERMATOLOGICAL DELIVERY” (Limeway Pharma Design Limited, priority 2020, published 2026).
Where “and” joins values, the source holds several entries; their conditions need not be identical. Equal values may be shown once. Read-outs that look alike come from different tables or passages of the source.

Legend:
[1] = Solubility of diffusion coefficient enhancers in propylene glycol and caprylyl methicone; assay type: physicochemical; conditions: 23-25° C.
Description: As described previously, diffusion coefficient-enhancing excipients (DC enhancers) commonly comprise alcohol, acid or ester derivatives of C8-C22 hydrocarbons.
Conversely, lower carbon chain length acids and alcohols such as C8 and C10 alcohols and C8 and C10 acids may be considered to be far too soluble in hydrocarbyl methyl siloxanes including caprylyl methicone, such that their performance as diffusion coefficient-enhancing excipients would be adversely affected. Similarly, medium chain (for instance C14-C16) isopropyl esters are far too soluble in hydrocarbyl methyl siloxanes such as caprylyl methicone to allow performance as DC enhancers. For both of these classes of DC enhancer, up to 50% DC enhancer would be required to be at or near saturation in the non-volatile residual phase. In contrast, the C12-C14 acids and C14 alcohol have appropriate solubility in caprylyl methicone.
As an example of the outline design of a simple co-enhancer system comprising propylene glycol, and, for example, a C14 alcohol diffusion coefficient enhancer with caprylyl methicone, we might first consider that the concentration of propylene glycol and caprylyl methicone in the final composition (otherwise consisting of non-solvents) to be 25% of each. On this basis, the total amount of C14 alcohol to saturate both of these phases would be 2.44%/4+2.30%/4=1.185%, approximately 1.2%. […]

[2] = cited from earlier work
[3] = target: T1, PARP-1 (Homo sapiens, UniProt P09874); assay: PARP-1 inhibition in vitro (Park J, 2010); assay type: biochemical
T1 sequence (P09874 whole entry, species assumed): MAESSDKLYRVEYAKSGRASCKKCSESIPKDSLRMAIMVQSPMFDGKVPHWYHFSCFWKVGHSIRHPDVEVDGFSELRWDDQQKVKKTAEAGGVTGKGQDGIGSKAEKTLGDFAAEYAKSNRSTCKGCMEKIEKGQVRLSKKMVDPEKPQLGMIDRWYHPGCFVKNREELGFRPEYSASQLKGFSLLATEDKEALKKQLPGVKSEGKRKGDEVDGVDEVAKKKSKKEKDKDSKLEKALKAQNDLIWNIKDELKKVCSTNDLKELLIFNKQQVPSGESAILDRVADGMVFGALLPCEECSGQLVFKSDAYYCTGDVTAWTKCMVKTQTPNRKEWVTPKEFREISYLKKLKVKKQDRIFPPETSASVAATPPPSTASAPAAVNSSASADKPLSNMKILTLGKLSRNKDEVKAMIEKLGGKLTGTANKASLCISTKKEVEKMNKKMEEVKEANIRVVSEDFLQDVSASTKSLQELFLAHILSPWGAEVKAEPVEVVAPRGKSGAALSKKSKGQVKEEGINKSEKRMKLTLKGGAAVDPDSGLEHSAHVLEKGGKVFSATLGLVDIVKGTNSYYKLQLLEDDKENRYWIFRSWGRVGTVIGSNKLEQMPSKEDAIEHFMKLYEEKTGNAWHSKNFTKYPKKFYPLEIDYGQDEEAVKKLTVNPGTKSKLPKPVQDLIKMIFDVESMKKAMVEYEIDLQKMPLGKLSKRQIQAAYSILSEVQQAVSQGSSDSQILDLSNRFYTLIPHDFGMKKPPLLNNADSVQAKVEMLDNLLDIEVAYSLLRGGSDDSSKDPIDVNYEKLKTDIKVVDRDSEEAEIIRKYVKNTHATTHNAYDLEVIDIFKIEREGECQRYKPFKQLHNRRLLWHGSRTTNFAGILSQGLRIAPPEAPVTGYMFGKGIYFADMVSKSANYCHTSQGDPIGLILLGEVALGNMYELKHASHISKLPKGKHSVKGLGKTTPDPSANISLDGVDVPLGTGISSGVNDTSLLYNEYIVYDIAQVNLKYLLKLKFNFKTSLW

[4] = cited from earlier work; remark: listed apart in the source
[5] = tested on: human keratinocytes; conditions: cited from earlier work
[6] = target: T1, PARP-1; conditions: NAM 50 μM; cited from earlier work
[7] = tested on: melanosome transfer from melanocytes to keratinocytes; conditions: cited from earlier work
[8] = tested on: IL-1 beta, IL-6, IL-8 and TNF alpha; conditions: endotoxin-induced model; cited from earlier work
[9] = tested on: IL-8; conditions: keratinocytes; cited from earlier work
[10] = tested on: IL-6; conditions: NAM at 500 μm, the only dose studied; cited from earlier work
[11] = tested on: actinic keratoses; conditions: high oral dose, placebo-controlled; cited from earlier work
[12] = tested on: non-melanoma human skin cancers; conditions: cited from earlier work
[13] = tested on: AKs in transplant recipients; conditions: cited from earlier work
[14] = tested on: bullous pemphigoid; conditions: oral 2 g/day with -cycline antibiotics; cited from earlier work
[15] = tested on: women with symmetrical pigmentation; conditions: 5% and 2% NAM moisturizer; cited from earlier work
[16] = oral dosage; cited from earlier work
[17] = tested on: patients with mild-moderate psoriasis; conditions: end of 12 weeks; cited from earlier work
[18] = Saturated solubility of corticosteroids in liquid silicones; assay type: physicochemical; conditions: including caprylyl methicone
[19] = tested on: murine flank skin; conditions: 10% PHA applied to murine flank skin; cited from earlier work
[20] = tested on: human SC; conditions: 5% PHA in propylene glycol/myrystyl alcohol co-enhancer non-silicone cream; up to; cited from earlier work
[21] = tested on: acute radiation dermatitis; conditions: topical cream; cited from earlier work
[22] = tested on: melasma; conditions: oral, over 12 weeks; cited from earlier work

SMILES: CCCCCCCCCCCCCCO [C14 alcohol, myristyl alcohol]
- solubility of C14 alcohol in caprylyl methicone (amount to saturate) ([1]; in caprylyl methicone): 2.30%
- solubility of C14 alcohol in propylene glycol (amount to saturate) ([1]; in propylene glycol): 2.44%
- logP O/W [2]: > 4.00

SMILES: NC(=O)c1cccnc1 [NAM, nicotinamide]
- concentration predicted to be required for significant PARP-1 inhibition [3]: 50 to 100 µM
- pKa [4]: ~3.5 and 3.5
- ceramide biosynthesis, % of maximum response ([5]; NAM 1-10 μM): 75%-100%
- concentration at maximum of ceramide synthesis dose response ([5]; in vitro): ~10 µM
- increase in biosynthesis of ceramides and other stratum corneum lipids ([5]; up to): up to 5 fold
- PARP-1 inhibition [6]: 66%
- inhibition of melanosome transfer ([7]; 1.0 mmolL^−1 (1 mM) NAM, coculture model): 35-68%
- inhibition of melanosome transfer ([7]; NAM 10 μM, after 3 days of treatment): 14%
- concentration required for significant effects on proinflammatory cytokines [8]: 2,000 μM
- concentration required to significantly inhibit P. acnes-induced IL-8 mRNA production [9]: 5.0 ug/ml and ~40 μM
- reduction in IL-6 compared to untreated control [10]: 88%
- effect on actinic keratoses [11]: significantly reduced actinic keratoses
- peritumoral and tumour infiltrating CD4+ and CD8+ lymphocytes versus placebo ([12]; melanomas arising on treatment): statistically significantly increased
- rates of new non-melanoma skin cancers and actinic keratoses ([12]; oral): safe and effective in reducing the rates
- patients with AKs significantly decreased in size ([13]; after six months, 18/19 patients): 88%
- patients with complete clinical regression ([13]; seven patients): 42%
- time to total remission of bullous pemphigoid [14]: 6-8 weeks
- reduction in hyperpigmented lesions [15]: dose-dependent reduction in hyperpigmented lesions
- half-life of decrease of peak concentrations in plasma and skin [16]: approximately 90 minutes

SMILES: C=C1/C(=C\C=C2/CCC[C@]3(C)[C@@H]([C@H](C)/C=C/[C@@H](O)C4CC4)CC[C@@H]23)C[C@@H](O)C[C@@H]1O [calcipotriol]
- reduction of PASI score [17]: 77.8±9.7%

SMILES: CCC(=O)O[C@]1(C(=O)SCF)[C@H](C)C[C@H]2[C@@H]3C[C@H](F)C4=CC(=O)C=C[C@]4(C)[C@@]3(F)[C@@H](O)C[C@@]21C [fluticasone propionate]
- saturated solubility in a range of liquid silicones [18]: appropriately low

SMILES: O=C1O[C@H](CO)[C@@H](O)[C@H](O)[C@H]1O [gluconolactone]
- logP O/W [2]: −4.8

SMILES: O=C(O)[C@H](O)[C@@H](O)[C@H](O[C@@H]1O[C@H](CO)[C@H](O)[C@H](O)[C@H]1O)[C@H](O)CO [lactobionic acid]
- logP O/W [2]: −4.8
- decrease in pH at all SC depths [19]: 0.5-1.0 pH units
- decrease in human SC pH in vivo [20]: up to 1.5 pH units

SMILES: C[C@@H]1C[C@H]2[C@@H]3CCC4=CC(=O)C=C[C@]4(C)[C@@]3(Cl)[C@@H](O)C[C@]2(C)[C@@]1(OC(=O)c1ccco1)C(=O)CCl [mometasone furoate]
- saturated solubility in a range of liquid silicones [18]: appropriately low
- reduction of acute radiation dermatitis versus emollient cream [21]: significantly more effective than emollient cream alone

SMILES: NC[C@H]1CC[C@H](C(=O)O)CC1 [tranexamic acid]
- reduction in melasma (mMASI, MASI) scores [22]: approximately 50%
